# In patent US20260285850A1, “SUBSTITUTED OXAZOLIDINONES AND IMIDAZOLINONES AS HERBICIDES” (FMC CORPORATION, priority 2023, published 2026):
# Experiments:
# Type in all cases: in vivo
# [1] = test system: barnyardgrass (Echinochloa crus-galli); test: Test A preemergence soil spray, visual injury rating 0-100; details: 10 days, 0 = no effect, 100 = complete control
# Summary of the method: (§1)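 Directed preemergence spray onto seeded soil or postemergence spray onto 2-10 cm plants (loam plus sand); compound carried in surfactant-containing non-phytotoxic solvent. Injury rated by eye after 10 d greenhouse growth; 0 = no effect, 100 = complete control.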
# soybean (Glycine max) [2] = test: as above; details: 10 days, 0 = no effect, 100 = complete control
# Summary of the method: as §1
# kochia (Bassia scoparia) [3] = test: as above; details: 10 days, 0 = no effect, 100 = complete control
# Summary of the method: as §1
# [4] = test system: oat, wild (wild oat, Avena fatua); test: as above; details: 10 days, 0 = no effect, 100 = complete control
# Summary of the method: as §1
# [5] = test system: ryegrass, Italian (italian ryegrass, Lolium multiflorum); test: as above; details: 10 days, 0 = no effect, 100 = complete control
# Summary of the method: as §1
# [6] = test system: palmer (palmer amaranth, palmer pigweed, Amaranthus palmeri); test: as above; details: 10 days, 0 = no effect, 100 = complete control
# Summary of the method: as §1
# [7] = test system: ragweed (common ragweed, Ambrosia artemisiifolia); test: as above; details: 10 days, 0 = no effect, 100 = complete control
# Summary of the method: as §1
# corn (Zea mays) [8] = test: as above; details: 10 days, 0 = no effect, 100 = complete control
# Summary of the method: as §1
# [9] = test system: green foxtail (Setaria viridis); test: as above; details: 10 days, 0 = no effect, 100 = complete control
# Summary of the method: as §1
# [10] = test system: wheat (Triticum aestivum); test: as above; details: 10 days, 0 = no effect, 100 = complete control
# Summary of the method: as §1
# [11] = test system: blackgrass (Alopecurus myosuroides); test: as above; details: 10 days, 0 = no effect, 100 = complete control
# Summary of the method: as §1
# [12] = test system: barnyardgrass (Echinochloa crus-galli); test: Test A postemergence application, visual injury rating 0-100; details: Postemergence, 10 days, 0 is no effect, 100 is complete control
# Summary of the method: as §1
# soybean (Glycine max) [13] = test: as above; details: Postemergence, 10 days, 0 is no effect, 100 is complete control
# Summary of the method: as §1
# kochia (Bassia scoparia) [14] = test: as above; details: Postemergence, 10 days, 0 is no effect, 100 is complete control
# Summary of the method: as §1
# [15] = test system: oat, wild (wild oat, Avena fatua); test: as above; details: Postemergence, 10 days, 0 is no effect, 100 is complete control
# Summary of the method: as §1
# [16] = test system: ryegrass, Italian (italian ryegrass, Lolium multiflorum); test: as above; details: Postemergence, 10 days, 0 is no effect, 100 is complete control
# Summary of the method: as §1
# [17] = test system: palmer (palmer amaranth, palmer pigweed, Amaranthus palmeri); test: as above; details: Postemergence, 10 days, 0 is no effect, 100 is complete control
# Summary of the method: as §1
# [18] = test system: ragweed (common ragweed, Ambrosia artemisiifolia); test: as above; details: Postemergence, 10 days, 0 is no effect, 100 is complete control
# Summary of the method: as §1
# [19] = test system: galium (catchweed bedstraw, Galium aparine); test: as above; details: Postemergence, 10 days, 0 is no effect, 100 is complete control
# Summary of the method: as §1
# [20] = test system: horseweed (Erigeron canadensis); test: as above; details: Postemergence, 10 days, 0 is no effect, 100 is complete control
# Summary of the method: as §1
# corn (Zea mays) [21] = test: as above; details: Postemergence, 10 days, 0 is no effect, 100 is complete control
# Summary of the method: as §1
# [22] = test system: green foxtail (Setaria viridis); test: as above; details: Postemergence, 10 days, 0 is no effect, 100 is complete control
# Summary of the method: as §1
# [23] = test system: wheat (Triticum aestivum); test: as above; details: Postemergence, 10 days, 0 is no effect, 100 is complete control
# Summary of the method: as §1
# [24] = test system: blackgrass (Alopecurus myosuroides); test: as above; details: Postemergence, 10 days, 0 is no effect, 100 is complete control
# Summary of the method: as §1
# [25] = test system: sedge, umbrella (small-flower umbrella sedge, Cyperus difformis); test: Test B flooded paddy test, visual plant response rating 0-100; details: 250 g ai/ha, Flood, applied to paddy water, evaluated after 13 days
# Summary of the method: (§2)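 Plants were grown to the 2-leaf stage, then pots were flooded to 3 cm above the soil and test compounds were applied directly into the paddy water. Water depth was held there throughout; after 13 days in a greenhouse, injury was scored visually against untreated controls.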
# rice (Oryza sativa) = test: as above; details: 250 g ai/ha, Flood, applied to paddy water, evaluated after 13 days
# Summary of the method: as §2
# [26] = test system: barnyardgrass (Echinochloa crusgalli); test: as above; details: 250 g ai/ha, Flood, applied to paddy water, evaluated after 13 days
# Summary of the method: as §2
# [27] = test system: ducksalad (Heteranthera limosa); test: as above; details: 250 g ai/ha, Flood, applied to paddy water, evaluated after 13 days
# Summary of the method: as §2
smiles,measurement,setting,value
CC1(C(=O)NC2C=CC(C(=O)OCCS(C)(=O)=O)C2)CN(c2cc(Cl)cc(Cl)c2)C(=O)O1 (stereo not shown) [Compound 46],Barnyardgrass plant response rating (0 to 100 scale),[1]; 125 g ai/ha,80
same,Barnyardgrass plant response rating (0 to 100 scale),[1]; 500 g ai/ha,100
same,Soybean plant response rating (0 to 100 scale),soybean (Glycine max) [2]; 125 g ai/ha,10
same,Soybean plant response rating (0 to 100 scale),soybean (Glycine max) [2]; 500 g ai/ha,60
same,Kochia plant response rating (0 to 100 scale),kochia (Bassia scoparia) [3]; 125 g ai/ha,60
same,Kochia plant response rating (0 to 100 scale),kochia (Bassia scoparia) [3]; 500 g ai/ha,90
same,"Oat, Wild plant response rating (0 to 100 scale)",[4]; 125 g ai/ha,70
same,"Oat, Wild plant response rating (0 to 100 scale)",[4]; 500 g ai/ha,90
same,"Ryegrass, Italian plant response rating (0 to 100 scale)",[5]; 125 g ai/ha,80
same,"Ryegrass, Italian plant response rating (0 to 100 scale)",[5]; 500 g ai/ha,90
same,"Amaranth, Palmer plant response rating (0 to 100 scale)",[6]; 125 g ai/ha,80
same,"Amaranth, Palmer plant response rating (0 to 100 scale)",[6]; 500 g ai/ha,100
same,Ragweed plant response rating (0 to 100 scale),[7]; 125 g ai/ha,30
same,Ragweed plant response rating (0 to 100 scale),[7]; 500 g ai/ha,70
same,Corn plant response rating (0 to 100 scale),corn (Zea mays) [8]; 125 g ai/ha,0
same,Corn plant response rating (0 to 100 scale),corn (Zea mays) [8]; 500 g ai/ha,90
same,"Foxtail, Green plant response rating (0 to 100 scale)",[9]; 125 g ai/ha,0
same,"Foxtail, Green plant response rating (0 to 100 scale)",[9]; 500 g ai/ha,0
same,Wheat plant response rating (0 to 100 scale),[10]; 125 g ai/ha,70
same,Wheat plant response rating (0 to 100 scale),[10]; 500 g ai/ha,90
same,Blackgrass plant response rating (0 to 100 scale),[11]; 125 g ai/ha,80
same,Blackgrass plant response rating (0 to 100 scale),[11]; 500 g ai/ha,90
same,Barnyardgrass plant response rating (0 to 100 scale),[12]; 125 g ai/ha,100
same,Barnyardgrass plant response rating (0 to 100 scale),[12]; 500 g ai/ha,100
same,Soybean plant response rating (0 to 100 scale),soybean (Glycine max) [13]; 125 g ai/ha,80
same,Soybean plant response rating (0 to 100 scale),soybean (Glycine max) [13]; 500 g ai/ha,90
same,Kochia plant response rating (0 to 100 scale),kochia (Bassia scoparia) [14]; 125 g ai/ha,80
same,Kochia plant response rating (0 to 100 scale),kochia (Bassia scoparia) [14]; 500 g ai/ha,80
same,"Oat, Wild plant response rating (0 to 100 scale)",[15]; 125 g ai/ha,80
same,"Oat, Wild plant response rating (0 to 100 scale)",[15]; 500 g ai/ha,90
same,"Ryegrass, Italian plant response rating (0 to 100 scale)",[16]; 125 g ai/ha,70
same,"Ryegrass, Italian plant response rating (0 to 100 scale)",[16]; 500 g ai/ha,70
same,"Amaranth, Palmer / Pigweed, Palmer plant response rating (0 to 100 scale)",[17]; 125 g ai/ha,90
same,"Amaranth, Palmer / Pigweed, Palmer plant response rating (0 to 100 scale)",[17]; 500 g ai/ha,90
same,Ragweed plant response rating (0 to 100 scale),[18]; 125 g ai/ha,60
same,Ragweed plant response rating (0 to 100 scale),[18]; 500 g ai/ha,80
same,Galium plant response rating (0 to 100 scale),[19]; 125 g ai/ha,80
same,Galium plant response rating (0 to 100 scale),[19]; 500 g ai/ha,70
same,Horseweed plant response rating (0 to 100 scale),[20]; 125 g ai/ha,80
same,Horseweed plant response rating (0 to 100 scale),[20]; 500 g ai/ha,80
same,Corn plant response rating (0 to 100 scale),corn (Zea mays) [21]; 125 g ai/ha,100
same,Corn plant response rating (0 to 100 scale),corn (Zea mays) [21]; 500 g ai/ha,100
same,"Foxtail, Green plant response rating (0 to 100 scale)",[22]; 125 g ai/ha,80
same,"Foxtail, Green plant response rating (0 to 100 scale)",[22]; 500 g ai/ha,90
same,Wheat plant response rating (0 to 100 scale),[23]; 125 g ai/ha,90
same,Wheat plant response rating (0 to 100 scale),[23]; 500 g ai/ha,90
same,Blackgrass plant response rating (0 to 100 scale),[24]; 125 g ai/ha,100
same,Blackgrass plant response rating (0 to 100 scale),[24]; 500 g ai/ha,100
same,"Plant response rating, Sedge, Umbrella (0 to 100 scale, 0 is no effect and 100 is complete control)",[25],95
same,"Plant response rating, Rice (0 to 100 scale, 0 is no effect and 100 is complete control)",rice (Oryza sativa),10
same,"Plant response rating, Barnyardgrass (0 to 100 scale, 0 is no effect and 100 is complete control)",[26],70
same,"Plant response rating, Ducksalad (0 to 100 scale, 0 is no effect and 100 is complete control)",[27],90
